Experiments:
Assay in all cases: relative viability (nuclei count vs DMSO), 5 days (fraction); higher = more cells survive
[1] = compound: CCN1C(=O)C2=CC(=C(N=C2N(C1=O)C3CC3)N)C(=O)N + CS(=O)(=O)N1CCN(Cc2cc3nc(-c4cccc5[nH]ncc45)nc(N4CCOCC4)c3s2)CC1 [Pictilisib] (partner 1 µM)
In short: (§1)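 Cells from lung cancer lines were seeded into 1536-well plates and, one day later, dosed by pin tool. Treatments were either a single drug or a fixed dose of an anchor drug with five library-drug doses (not always all listed) in √10 steps. After 5 days, nuclei were stained in a one-step fixation (final 0.05% Triton X-100, 1% formaldehyde, 1 ug/ml Hoechst) and counted on 4× images, and relative viability is the treated-to-vehicle nuclei ratio, as the median of duplicate plates.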

[2] = compound: CCN1C(=O)C2=CC(=C(N=C2N(C1=O)C3CC3)N)C(=O)N + N=C(N)NC(=N)NCCc1ccccc1 [Phenformin] (partner 250 µM)
In short: as §1

[3] = compound: CCN1C(=O)C2=CC(=C(N=C2N(C1=O)C3CC3)N)C(=O)N + O=C(CCCCCCC(=O)Nc1ccccc1)NO [Vorinostat] (partner 1 µM)
In short: as §1

[4] = compound: CCN1C(=O)C2=CC(=C(N=C2N(C1=O)C3CC3)N)C(=O)N + Cc1nc(NC(=O)N2CCC[C@H]2C(N)=O)sc1-c1ccnc(C(C)(C)C(F)(F)F)c1 [Alpelisib] (partner 2 µM)
In short: as §1

[5] = compound: CCN1C(=O)C2=CC(=C(N=C2N(C1=O)C3CC3)N)C(=O)N + Cc1cc(Nc2cc(N3CCN(C)CC3)nc(Sc3ccc(NC(=O)C4CC4)cc3)n2)n[nH]1 [Tozasertib] (partner 0.1 µM)
In short: as §1

Cell Line	relative viability ([1]; first compound 0.253 µM)	relative viability ([1]; first compound 0.8 µM)	relative viability ([1]; first compound 2.53 µM)	relative viability ([1]; first compound 8 µM)	relative viability ([2]; first compound 0.253 µM)	relative viability ([2]; first compound 0.8 µM)	relative viability ([2]; first compound 2.53 µM)	relative viability ([2]; first compound 8 µM)	relative viability ([3]; first compound 0.253 µM)	relative viability ([3]; first compound 0.8 µM)	relative viability ([3]; first compound 2.53 µM)	relative viability ([3]; first compound 8 µM)	relative viability ([4]; first compound 0.253 µM)	relative viability ([4]; first compound 0.8 µM)	relative viability ([4]; first compound 2.53 µM)	relative viability ([4]; first compound 8 µM)	relative viability ([5]; first compound 0.253 µM)	relative viability ([5]; first compound 0.8 µM)	relative viability ([5]; first compound 2.53 µM)	relative viability ([5]; first compound 8 µM)
201T	0.688	0.621	0.722	0.635	0.478	0.474	0.442	0.47	0.92	0.982	0.945	0.973	1.04	1.02	1.04	1.04	1.01	0.993	0.973	1.04
A-427	0.724	0.578	0.645	0.727	0.376	0.307	0.376	0.343	0.923	0.926	0.842	0.852	1.02	1.04	1.04	1.09	0.223	0.226	0.208	0.206
ABC-1	0.761	0.667	0.82	0.699	0.24	0.22	0.274	0.25	1.11		1.81	1.11	1.23	0.751	1.11	0.969	0.17	0.167	0.178	0.149
BEN	0.539	0.522	0.62	0.519	0.251	0.273	0.264	0.284	0.608	0.641	0.63	0.625	1.07	1.02	0.929	1.01	0.629	0.528	0.443	0.525
CAL-12T	0.431		0.437	0.541	0.565	0.61	0.49	0.547	0.771	0.642	0.659	0.803	1.07	1.07	0.964	1.21	0.271	0.269	0.282	0.223
COR-L23	0.814	0.751	0.729	0.947	0.429	0.442	0.435	0.423	0.413	0.393	0.446	0.343	0.775	0.714	0.816	0.944	0.197	0.183	0.164	0.161
COR-L 105	0.453	0.366	0.412	0.369	0.452	0.391	0.498	0.379	0.902	0.779	0.688	0.819	1.08	0.959	0.833	0.853	0.346	0.355	0.403	0.327
ChaGo-K-1	0.916	0.563	0.91	0.766	0.485	0.446	0.561	0.472	0.793	0.764	0.72	0.748					0.218	0.215	0.221	0.2
EKVX	0.439	0.411	0.388	0.438	0.256	0.248	0.316	0.231	0.881	0.589	0.716	0.594	0.975	0.896	0.821	0.851	0.359	0.494	0.358	0.384
EMC-BAC-2	0.642	0.536	0.456	0.584	0.597	0.478	0.478	0.56	0.992		0.782	0.67	0.808	0.743	0.725	0.796	0.319	0.249	0.255	0.304
EPLC-272H	0.296	0.288	0.389	0.333	0.322	0.32	0.357	0.32		0.538	0.411	0.477	0.801	0.868	0.901	0.942	0.289	0.227	0.229	0.224
H3255	0.509	0.47	0.504	0.513	0.427	0.306	0.315	0.359	0.838	0.688	0.819	0.831	0.653	0.609	0.631	0.624	0.606	0.682	0.533	1.3
HARA	0.403	0.36	0.379	0.486	0.433	0.478	0.414	0.401	0.563	0.5	0.57	0.552	0.817	0.787	0.79	0.964	0.12	0.129	0.0936	0.111
HCC-15	0.699	0.79	0.793	0.801	0.456	0.472	0.473	0.44	0.885	0.785	0.869	0.815	0.921	0.959	0.873	0.986	0.46	0.389	0.385	0.502
HCC-44	0.599	0.6	0.564	0.641	0.296	0.18	0.277	0.185	1.13	1.05	1.06	1.04	0.829	0.802	0.778	0.784	0.634	0.965	0.789	0.875
HCC-78	0.223	0.173	0.201	0.205	0.747		0.75	0.685	0.451	0.437	0.437	0.462	0.299	0.337	0.31	0.467	0.422		0.289	0.453
HCC-366	0.168	0.162	0.0835	0.11		0.595	0.589	0.589	0.363	0.384	0.297	0.277	0.442	0.505	0.456	0.468		0.0821	0.0697	0.0668
HCC-827	0.954	1.08	1.16	1.03	0.439	0.383	0.382	0.382	0.498	0.709	1	0.819	0.915	0.964	0.941	0.88	0.395	0.387	0.457	0.445

Cell Line	relative viability ([1]; first compound 0.253 µM)	relative viability ([1]; first compound 0.8 µM)	relative viability ([1]; first compound 2.53 µM)	relative viability ([1]; first compound 8 µM)	relative viability ([2]; first compound 0.253 µM)	relative viability ([2]; first compound 0.8 µM)	relative viability ([2]; first compound 2.53 µM)	relative viability ([2]; first compound 8 µM)	relative viability ([3]; first compound 0.253 µM)	relative viability ([3]; first compound 0.8 µM)	relative viability ([3]; first compound 2.53 µM)	relative viability ([3]; first compound 8 µM)	relative viability ([4]; first compound 0.253 µM)	relative viability ([4]; first compound 0.8 µM)	relative viability ([4]; first compound 2.53 µM)	relative viability ([4]; first compound 8 µM)	relative viability ([5]; first compound 0.253 µM)	relative viability ([5]; first compound 0.8 µM)	relative viability ([5]; first compound 2.53 µM)	relative viability ([5]; first compound 8 µM)
HOP-62	1.01	0.883	0.413	0.804	0.678	0.696	0.633	0.77	0.622	0.71	0.58	0.579	1	1.06	0.778	0.964	0.367	0.353	0.382	0.371
IA-LM	0.358	0.356	0.343	0.339					0.983	0.873	0.905	1.1	0.743	0.816	0.584	0.696				
LC-2-ad	0.465	0.409	0.514	0.506	0.521	0.556	0.505	0.587	0.663	0.754	0.698	0.721	0.838	0.897	0.881	0.914	0.399	0.507	0.484	0.452
LCLC-97TM1	0.203			0.223	0.383	0.452	0.375	0.407	0.711	0.752	0.634	0.773	0.258			0.275	0.218	0.166	0.204	0.25
LCLC-103H	0.57	0.581	0.501	0.582	0.341	0.305	0.291	0.364	0.798	0.806	0.761	0.817	0.935	0.962	0.907	0.934	0.468	0.487	0.472	0.48
LK-2	0.547	0.507	0.525	0.556	0.375	0.591	0.408	0.535	0.286	0.377	0.307	0.302	0.761	1.36	1.3	1.13	0.184	0.173	0.149	0.161
LOU-NH91	0.509	0.516	0.541	0.538	0.466	0.645	0.822	0.694	0.863	0.848	0.948	0.903	0.687	0.716	0.721	0.684	0.603	0.649	0.635	0.683
LU99A	0.305	0.332	0.303	0.363	0.778	0.915	0.77	0.72	0.471	0.493	0.471	0.469	0.488	0.531	0.527	0.524	0.307	0.277	0.252	0.238
LXF-289	0.831	0.85	0.819	0.775	0.519	0.552	0.519	0.538	0.798	0.744	0.825	0.787	1.04	1.07	1.03	1.05	0.127	0.26	0.206	0.201
NCI-H23	0.453	0.447	0.473	0.487	0.789	0.768	0.749	0.675	0.548	0.715	0.58	0.635	0.638	0.741	0.615	0.789	0.415	0.352	0.352	0.335
NCI-H322M	0.452	0.504	0.486	0.488	0.822	0.736	0.75	0.868	1.04	0.758	1.04	0.931	0.855	0.694	0.765	0.656	0.526	0.475	0.493	0.511
NCI-H1563	0.648	0.618	0.728	0.616	0.653	0.611	0.651	0.639					0.983	0.982	0.913	0.783				
NCI-H1650	0.501	0.547	0.521	0.589	0.47	0.4	0.367	0.379	0.562	0.614	0.494	0.622					0.394	0.404	0.38	0.342
NCI-H1703	0.243	0.224	0.275	0.269									0.339	0.342	0.31	0.368				
NCI-H1792	0.312	0.28	0.355	0.3	0.224	0.237	0.367	0.352					0.777	0.687	0.759	0.774				
NCI-H2342					0.556	0.547	0.666	0.532	0.719	0.812	0.817	0.645					0.512	0.533	0.544	0.54
SW 900					0.498	0.625	0.493	0.563	0.434	0.582	0.524	0.538					0.553	0.507	0.457	0.446

Source: the supplement of paper PMC10307832
